# No end group written: not given here. *: point of attachment. For = O=C*
# Experiments:
# HeLa cells = experiment: Cytotoxicity, LDH and MTT assays; type: cell-based, human; conditions: 4 h exposure, said to be similar to the other cell types (Fig. S7)
# Description: Human skin fibroblasts (HSF, ATCC CRL-2522), adipose-derived stem cells (ASCs, ATCC PCS-500-011), and HeLa human epithelioid cervix carcinoma cells (ATCC CCL-2) were maintained in Dulbecco’s modified Eagle’s medium (DMEM, Sigma) containing 1 g/l glucose, 10% (v/v) foetal bovine serum (FBS), 1 U/ml penicillin, 1 μg/ml streptomycin, and 2.5 μg/ml amphotericin B. Murine P388/D1 monocyte/macrophage cells (ATCC CCL-46) and murine RAW264.7 macrophage-like cells (ATCC TIB-71) were cultured in DMEM containing 4.5 g/l glucose, 5% (v/v) FBS, and antibiotics, as indicated above. Keratinocytes from human skin were grown in KBM Gold Medium (Lonza). All cells were incubated in standard conditions (5% CO2, 37 °C, >95% humidity). […] After a 30-min incubation (RT, in the dark), the reaction was stopped, and the absorbance was measured with a microplate reader (PowerWave X, BioTek Instruments) at 490 nm, followed by subtraction of the absorbance reference value at 690 nm. […] The absorbance of solubilized purple formazan was measured at 540 nm, followed by subtraction of the absorbance reference value at 690 nm. […] The amount of released haemoglobin was spectrophotometrically determined at 540 nm and compared with a positive control (erythrocytes lysed with 1% sodium dodecyl sulphate).
# [1] = system: B. subtilis 1A751 (pALCP2G); experiment: GFP release assay; type: cell-based, Bacillus subtilis; conditions: 2 × 10^6 CFU in PBS, 1 h 37 °C, 0.23 to 15 μM BacSp222, fluorescence of supernatant 480/510 nm
# Description: The bacteria transformed with GFP-encoding plasmids (pCN68[59] for S. aureus RN4220; pALCP2G[60] for B. subtilis 1A751[61] and E. coli DH5α) were grown overnight in TSB supplemented with appropriate antibiotics, washed twice and finally suspended in PBS. Fifty microliters of the suspensions containing 2 × 10^6 CFU of bacteria were then incubated for 1 h at 37 °C with serial dilutions of BacSp222 at concentrations ranging from 0.23 to 15 μM. Then, the bacteria were spun down, and the fluorescence in the supernatant was determined (Synergy H1 microplate reader, BioTek, 480/510 nm excitation/emission wavelengths). As the controls for 100% GFP release, S. aureus and B. subtilis were lysed using lysostaphin and chicken egg white lysozyme (Sigma), respectively, whereas the E. coli cells were disrupted by ultrasonication.
# [2] = Hydrodynamic diameter by dynamic light scattering; type: physicochemical; conditions: 0.2 mg/ml in PBS, room temperature, filtered 0.2 μm, average of three independent measurements; suggests elongated shape or dimers
# Description: The hydrodynamic diameter of the BacSp222 molecule was determined at room temperature by the dynamic light scattering (DLS) technique using a Zetasizer Nano ZS apparatus (Malvern Instruments); a 0.2 mg/ml solution of the peptide in phosphate buffered saline (PBS) was used for analysis. Prior to measurements, the solution was filtered through a 0.2 μm bioinert membrane (Sigma). The obtained spectra were averaged over three independent measurements. The size of BacSp222 was also evaluated by gel filtration chromatography using a Superdex Peptide 10/300 GL column (GH Healthcare) operated in PBS with a 0.3 ml/min flow rate.
# [3] = Conformational stability by CD, ellipticity at 220 nm against temperature; type: physicochemical; conditions: 125 μg/ml in PBS, 20–90 °C at 1 °C/min
# Description: The circular dichroism (CD) spectra of BacSp222 (125 μg/ml in PBS) were recorded using a J-715 spectropolarimeter (Jasco). The spectra were recorded at room temperature in the range 190–240 nm and were averaged over three independent passes. The amount of secondary structures was estimated by fitting the measured spectra to the reference spectra of natural native proteins (Prot, Jasco) or synthetic polypeptides (Yang, Jasco). To evaluate the conformational stability of the BacSp222 molecule at different temperatures, the ellipticity of the polarized light was recorded at 220 nm over the temperature range 20–90 °C at 1 °C/min increments.
substance,measurement,setting,value
For-MAGLLRFLLSKGRALYNWAKSHVGKVWEWLKSGATYEQIKEWIENALGWR [BacSp222],cytotoxic effect,HeLa cells,"sigmoidal, dose-dependent cytotoxic effect"
same,leakage of GFP from recombinant cells,[1],dose-dependent leakage of GFP was observed
same,hydrodynamic diameter estimated by DLS,[2],3.68 nm
same,ellipticity at 220 nm at elevated temperatures,[3],"lack of changes in ellipticity at 220 nm, up to 90 °C"

# Reference: publication PMC4585962, “A peptide factor secreted by Staphylococcus pseudintermedius exhibits properties of both bacteriocins and virulence factors” (Scientific Reports, 2015)
